Reference: patent US20230201383A1, “PSMA TARGETING UREA-BASED LIGANDS FOR PROSTATE CANCER RADIOTHERAPY AND IMAGING” (Rigshospitalet, priority 2020, published 2023)
Entries after “also recorded” stand apart in the source; their conditions may differ. Structures can show the parent of a compound that is named as a salt.

Legend:
[1] = test system: PSMA(+) LNCaP cells; test: Internalisation and cell surface binding of 68Ga-labeled compounds in LNCaP cells; format: cell-based, human
Description: Compounds Ii, Ij, Ik, Il, Im and In was provided using the same method as disclosed in Example 3 and in vitro test of the binding affinity and internalisation of the compounds were examined using the method as described in Benesova et al, 2016^9. The iodine isotope used was ^127I.
For internalisation determinations, a day before the experiment, PSMA(+) LNCaP cells were seeded in a poly-L-lysine coated 24-well plate (10^5 cells per well) and maintained at 37° C. in an atmosphere of 5% CO2 under supplemented RMPI medium (10% Fetal Calf Serum, 1% sodium pyruvate, 1% FIS). Cells were incubated with 250 μL of radiolabelled compound diluted in RPMI medium (final concentration of [^68Ga]-peptide: 30 nM) and 500 μM of PMPA (2-phosphonomethyl-pentanedioic acid) for the blocked series, for 45 min at 37° C. Cellular uptake was interrupted by washing the cells with ice-cold PBS (3×1 mL). Surface bound radioactivity was removed by incubating twice with 0.5 mL glycine (50 mM, pH=2.8) for 5 min. Thereafter, cells were washed with PBS (1 mL) and lysed employing NaOH (0.3 M) during 10 min. Lysates and surface-bound activity were collected and measured in a gamma-counter (Perkin Elmer 2480, Wizard, Gamma Counter). The cell uptake was calculated as percent of the initially added radioactivity bound to […].
For internalisation studies androgen-sensitive human prostate adenocarcinoma cells (LNCaP) highly overexpressing PSMA were incubated with the ^68Ga-labeled compounds resulting in specific cell surface binding of all tested compounds (Table 2).

[2] = test system: LNCaP-tumor-bearing athymic nude mice; test: Small-animal PET imaging: tumor uptake and pharmacokinetic profile; format: in vivo; details: for Binding profile and biodistribution/pharmacokinetics compared with PSMA-617: direct head-to-head comparison with PSMA-617
Description: For the experimental tumor models 1×10^7 cells of LNCaP (in 50% Matrigel; Becton Dickinson) were subcutaneously inoculated into the right flank of 7- to 8-week-old male BALB/c nu/nu mice (Janvier). For imaging studies, mice were anesthetized (2% isoflurane) and 0.5 nmol of the ^68Ga-labeled compound in 0.9% NaCl (pH 7) were injected into the tail vein. PET imaging was performed with μPET/MRI scanner (BioSpec 3T, Bruker) with a dynamic scan for 60 min. The images were iteratively reconstructed (MLEM 0.5 algorithm, 12 iterations) and were converted to SUV images. Quantification was done using a ROI (region of interest) technique and data in expressed in time activity curves as SUVbody weight. All animal experiments complied with the current laws of the Federal Republic of Germany.
FIGS. 2 to 7 show the pharmacokinetic study with small-animal PET imaging. Time activity curves for non-target organs and tumor after injection of 0.5 nmol ^68Ga-labeled compounds in LNCaP-tumor-bearing athymic nude mice (right trunk) up to 60 min p.i. SUV=standardized uptake value.

[3] = 68Ga-labeled compounds, 30 nM, 45 min at 37° C., LNCaP cells, specific uptake by blockage with 500 μM 2-PMPA, mean ± SD (n=3)
[4] = 68Ga-labeled compounds, LNCaP cells
[5] = 0.5 nmol 68Ga-labeled compound i.v., PET up to 60 min p.i., time activity curves (SUV)
[6] = 68Ga-labeled compounds, LNCaP cells, trifluoroacetic acid salt

Row | Structure (SMILES) | Specifically cell surface bound [1, 3] [% IA/10^5 cells] | Specifically internalised [1, 3] [% IA/10^5 cells] | Internalisation compared with PSMA-617 (in words) [1, 4] | Tumor-to-muscle ratio compared with PSMA-617 [2, 5] | Binding profile and biodistribution/pharmacokinetics compared with PSMA-617 [2] | Tumor accumulation (reversibility) [2, 5] | Internalisation compared with PSMA-617 (in words) [1, 6] | Tumor uptake compared with PSMA-617 [2, 5] | Specifically cell surface bound ([1]; 0.75 h, 0.03 µM) [% IA/10^5 cells]
1 | O=C(O)CC[C@H](NC(=O)N[C@@H](CCCCNC(=O)[C@H](Cc1ccccc1I)NC(=O)[C@H]1CC[C@H](CNC(=O)CN2CCN(CC(=O)O)CCN(CC(=O)O)CCN(CC(=O)O)CC2)CC1)C(=O)O)C(=O)O [Ii, (((S)-1-carboxy-5-((S)-3-(2-iodophenyl)-2-((1r,4S)-4-((2-(4,7,10-tris(carboxymethyl)-1,4,7,10-tetraazacyclododecan-1-yl)acetamido)methyl)cyclohexane-1-carboxamido)propanamido)pentyl)carbamoyl)-L-glutamic acid trifluoroacetic acid salt] | 1.1 ± 0.4 | 0.7 ± 0.1 | comparable to PSMA-617 | increased at later time points compared to PSMA-617 | comparable or superior to values observed for PSMA-617 | – | – | – | –
2 | O=C(O)CC[C@H](NC(=O)N[C@@H](CCCCNC(=O)[C@H](Cc1ccc2ccccc2c1)NC(=O)[C@H](Cc1ccc(I)cc1)NC(=O)CN1CCN(CC(=O)O)CCN(CC(=O)O)CCN(CC(=O)O)CC1)C(=O)O)C(=O)O [In, (((S)-1-carboxy-5-((S)-2-((S)-3-(4-iodophenyl)-2-(2-(4,7,10-tris(carboxymethyl)-1,4,7,10-tetraazacyclododecan-1-yl)acetamido)propanamido)-3-(naphthalen-2-yl)propanamido)pentyl)carbamoyl)-L-glutamic acid trifluoroacetic acid salt] | 0.4 ± 0.1 | 0.2 ± 0.1 | reduced internalised fraction | – | – | – | – | – | –
3 | O=C(O)CC[C@H](NC(=O)N[C@@H](CCCCNC(=O)[C@H](Cc1ccc(I)cc1)NC(=O)[C@H]1CC[C@H](CNC(=O)CN2CCN(CC(=O)O)CCN(CC(=O)O)CCN(CC(=O)O)CC2)CC1)C(=O)O)C(=O)O [Ik, (((S)-1-carboxy-5-((S)-3-(4-iodophenyl)-2-((1r,4S)-4-((2-(4,7,10-tris(carboxymethyl)-1,4,7,10-tetraazacyclododecan-1-yl)acetamido)methyl)cyclohexane-1-carboxamido)propanamido)pentyl)carbamoyl)-L-glutamic acid trifluoroacetic acid salt] | 0.7 ± 0.1 | 0.6 ± 0.3 | comparable to PSMA-617 | – | – | more reversible tumor accumulation | – | – | –
4 | O=C(O)CC[C@H](NC(=O)N[C@@H](CCCCNC(=O)[C@H](Cc1ccc2ccccc2c1)NC(=O)[C@H]1CC[C@H](CNC(=O)[C@H](Cc2ccc(I)cc2)NC(=O)CN2CCN(CC(=O)O)CCN(CC(=O)O)CCN(CC(=O)O)CC2)CC1)C(=O)O)C(=O)O [Im, (((S)-1-carboxy-5-((S)-2-((1S,4S)-4-(((S)-3-(4-iodophenyl)-2-(2-(4,7,10-tris(carboxymethyl)-1,4,7,10-tetraazacyclododecan-1-yl)acetamido)propanamido)methyl)cyclohexanecarboxamido)-3-(naphthalen-2-yl)propanamido)pentyl)carbamoyl)-L-glutamic acid trifluoroacetic acid salt] | 1.6 ± 0.5 | 0.9 ± 0.5 | – | – | comparable or superior to values observed for PSMA-617 | – | higher than or comparable to PSMA-617; also recorded: comparable to PSMA-617 | higher tumor uptake compared to PSMA-617 | –
5 | O=C(O)CC[C@H](NC(=O)N[C@@H](CCCCNC(=O)[C@H](Cc1cccc(I)c1)NC(=O)[C@H]1CC[C@H](CNC(=O)CN2CCN(CC(=O)O)CCN(CC(=O)O)CCN(CC(=O)O)CC2)CC1)C(=O)O)C(=O)O [Ij, (((S)-1-carboxy-5-((S)-3-(3-iodophenyl)-2-((1r,4S)-4-((2-(4,7,10-tris(carboxymethyl)-1,4,7,10-tetraazacyclododecan-1-yl)acetamido)methyl)cyclohexane-1-carboxamido)propanamido)pentyl)carbamoyl)-L-glutamic acid trifluoroacetic acid salt] | 2.3 ± 0.2 | 0.8 ± 0.3 | – | – | – | – | higher than or comparable to PSMA-617; also recorded: comparable to PSMA-617 | – | –
6 | O=C(O)CC[C@H](NC(=O)N[C@@H](CCCCNC(=O)[C@@H](Cc1c[nH]c2ccc(I)cc12)NC(=O)[C@H]1CC[C@H](CNC(=O)CN2CCN(CC(=O)O)CCN(CC(=O)O)CCN(CC(=O)O)CC2)CC1)C(=O)O)C(=O)O [Il, (((S)-1-carboxy-5-((R)-3-(5-iodo-1H-indol-3-yl)-2-((1r,4R)-4-((2-(4,7,10-tris(carboxymethyl)-1,4,7,10-tetraazacyclododecan-1-yl)acetamido)methyl)cyclohexane-1-carboxamido)propanamido)pentyl)carbamoyl)-L-glutamic acid trifluoroacetic acid salt] | 1.6 ± 0.4 | 0.6 ± 0.2 | comparable to PSMA-617 | – | – | – | – | – | –
7 | O=C(O)CC[C@H](NC(=O)N[C@@H](CCCCNC(=O)[C@H](Cc1ccc2ccccc2c1)NC(=O)[C@H]1CC[C@H](CNC(=O)CN2CCN(CC(=O)O)CCN(CC(=O)O)CCN(CC(=O)O)CC2)CC1)C(=O)O)C(=O)O [PSMA-617, reference compound] | – | 0.6 ± 0.2 | – | – | – | – | – | – | 1.5 ± 0.4
